Source: patent US20080275018A1, “ANTIBACTERIAL AMIDE-MACROCYCLES V” (AiCuris GmbH & Co. KG, priority 2005, published 2008)

What was measured:
S. aureus T17 = assay: Minimum inhibitory concentration (MIC), biphenomycin-resistant S. aureus T17; type: cell-based, Staphylococcus aureus
Description: The minimum inhibitory concentration (MIC) is the minimum concentration of an antibiotic with which the growth of a test microbe is inhibited over 18-24 h. The inhibitor concentration can in these cases be determined by standard microbiological methods (see, for example, The National Committee for Clinical Laboratory Standards. Methods for dilution antimicrobial susceptibility tests for bacteria that grow aerobically; approved standard-fifth edition. NCCLS document M7-A5 [ISBN 1-56238-394-9]. NCCLS, 940 West Valley Road, Suite 1400, Wayne, Pa. 19087-1898 USA, 2000). The test substances are thereby initially provided in 1:2 dilution series into 96-well round-bottom microtiter plates (Greiner) double-concentrated in 50 μl of test medium. The aerobically growing test microbes (e.g. staphylococci and enterococci), which are incubated overnight on Columbia blood agar plates (Becton-Dickinson), are, after resuspension in 0.9% NaCl, adjusted to a microbe count of about 5×10^7 microbes/ml and then diluted 1:150 in cation-adjusted MH medium (test medium). 50 μL of this suspension are pipetted onto the test preparations provided in the microtiter plates. The cultures are incubated at 37° C. for 18-24 hours. For microaerophilically growing microbes (e.g. streptococci), 2% lysed horse blood in the final concentration is added to the medium and the cultures are incubated in the presence of 5% CO2. The lowest substance concentration in each case at which no visible bacterial growth occurs any longer is defined as the MIC and is reported in μg/ml.
The minimum inhibitory concentration (MIC) is the minimum concentration of an antibiotic with which the growth of a test microbe is inhibited over 18-24 h. The inhibitor concentration can in these cases be determined by standard microbiological methods (see, for example, The National Committee for Clinical Laboratory Standards. Methods for dilution antimicrobial susceptibility tests for bacteria that grow aerobically; approved standard-fifth edition. NCCLS document M7-A5 [ISBN 1-56238-394-9]. NCCLS, 940 West Valley Road, Suite 1400, Wayne, Pa. 19087-1898 USA, 2000). The MIC of the compounds of the invention is determined in the liquid dilution test on the 96-well microtiter plate scale. The bacterial microbes are cultivated in a minimal medium (18.5 mM Na2HPO4, 5.7 mM KH2PO4, 9.3 mM NH4Cl, 2.8 mM MgSO4, 17.1 mM NaCl, 0.033 μg/ml thiamine hydrochloride, 1.2 μg/ml nicotinic acid, 0.003 μg/ml biotin, 1% glucose, 25 μg/ml of each proteinogenic amino acid with the exception of phenylalanine; [H.-P. Kroll; unpublished]) with the addition of 0.4% BH broth (test medium). In the case of Enterococcus faecium L4001, heat-inactivated fetal calf serum (FCS; GibcoBRL, Germany) is added to the test medium in a final concentration of 10%. Overnight cultures of the test microbes are diluted to an OD578 of 0.001 (to 0.01 in the case of enterococci) in fresh test medium, and incubated 1:1 with dilutions of the test substances (1:2 dilution steps) in test medium ([…]). The cultures are incubated at 37° C. for 18-24 hours; enterococci in the presence of 5% CO2.
The lowest substance concentration in each case at which no visible bacterial growth occurs any longer is defined as the MIC.
The minimum inhibitory concentration (MIC) is the minimum concentration of an antibiotic with which the growth of a test microbe is inhibited over 18-24 h. The inhibitor concentration can in these cases be determined by standard microbiological methods with modified medium in an agar dilution test (see, for example, The National Committee for Clinical Laboratory Standards. Methods for dilution antimicrobial susceptibility tests for bacteria that grow aerobically; approved standard-fifth edition. NCCLS document M7-A5 [ISBN 1-56238-394-9]. NCCLS, 940 West Valley Road, Suite 1400, Wayne, Pa. 19087-1898 USA, 2000). The bacterial microbes are cultivated on 1.5% agar plates which contain 20% defibrinated horse blood. […]

S. aureus RN4220 = assay: Resistance rate of S. aureus RN4220 on agar containing biphenomycin B; type: cell-based, Staphylococcus aureus; conditions: S. aureus RN4220, agar plate containing 2 μg/ml biphenomycin B (10×MIC), 37° C. overnight
Description: The S. aureus Strain RN4220BiR^R is isolated in vitro. For this purpose, 100 μl portions of an S. aureus RN4220 cell suspension (about 1.2×10^8 cfu/ml) are plated out on an antibiotic-free agar plate (18.5 mM Na2HPO4, 5.7 mM KH2PO4, 9.3 mM NH4Cl, 2.8 mM MgSO4, 17.1 mM NaCl, 0.033 μg/ml thiamine hydrochloride, 1.2 μg/ml nicotinic acid, 0.003 μg/ml biotin, 1% glucose, 25 μg/ml of each proteinogenic amino acid with the addition of 0.4% BH broth and 1% agarose) and on an agar plate containing 2 μg/ml biphenomycin B (10×MIC), and incubated at 37° C. overnight. Whereas about 1×10^7 cells grow on the antibiotic-free plate, about 100 colonies grow on the antibiotic-containing plate, corresponding to a resistance rate of 1×10^−5. Some of the colonies grown on the antibiotic-containing plate are tested for the biphenomycin B MIC. One colony with an MIC of >50 μM is selected for further use, and the strain is referred to as RN4220Bi^R.

`NC[C@H](O)C[C@@H]1NC(=O)[C@@H](N)Cc2cc(ccc2O)-c2ccc(O)c(c2)C[C@@H](C(=O)O)NC1=O` [Biphenomycin B, biphenomycin B, reference compound] was tested, and the “MIC S. aureus T17” value (S. aureus T17; biphenomycin-resistant S. aureus T17) was over 32 μ/ml, the “MIC of selected colony (strain T17)” value (S. aureus T17; colony isolated from kidney of mice treated with biphenomycin B) was over 50 µM and the resistance rate (S. aureus RN4220) was 1×10^−5.
